Results on 54 molecules are retold here after PubChem BioAssay AID179 (DTP/NCI, 2004).

The source made the active and inactive calls.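 How the source made its calls: active means compounds giving half or more protection of infected cells from virus-caused growth loss, again on retest; inactive means the rest.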

The assay deals with CEM cells HIV-1 protection, formazan growth assay. As to the kind of experiment: NCI AIDS Antiviral Assay. Particulars: for IC50: measured here: growth of uninfected CEM cells. In a few lines: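 Steps: treat uninfected and HIV-1-infected human CEM cells at five drug levels; quantify growth by soluble formazan; retest any compound reaching 50% protection; classify actives from the retest.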

`O=[N+]([O-])C(=C/C1CCCCC1)/C(=C\C1CCCCC1)[N+](=O)[O-]`: the EC50 (commonly the concentration that produces a half-maximal response) was above 200 µM and the IC50 (as a rule, the concentration at which inhibition is half-maximal) turned out to be 4.57 µM. On the same counts, the results for `Nn1c(SSSSc2nnc(-c3ccccc3)n2N)nnc1-c1ccccc1` are above 200 µM and above 200 µM.

Turning to `O=C1C(Cl)C(c2cccc(O)c2)N1n1cnc2ccccc2c1=O` (configuration not stated), the EC50 is above 75.9 µM and the IC50 is above 75.9 µM.

Consider `NS(=O)(=O)c1ccc(C(=O)O)cc1`, for which the EC50 was above 200 µM and the IC50 is above 200 µM. Turning to `CCOc1ccc(/C=C2/NC(=S)N(CN3CCCCC3)C2=O)cc1`, the EC50 is above 200 µM and the IC50 worked out at 72.4 µM. In the case of `COCc1cn(C2CCC(CO)O2)c(=O)nc1N` (configuration not stated), the EC50 was above 490 µM and the IC50 is above 490 µM. On to `O=C1CCC(c2nc3cc(Cl)ccc3o2)C(=O)N1` (configuration not stated), for which the EC50 is above 245 µM and the IC50 is above 245 µM.

In the case of `O=C(O)CC1OCC=C2CN3CCC45C6=CC(=O)C(=O)C([N+](=O)[O-])=C6NC4C1C2CC35` (configuration not stated), the EC50 is above 200 µM and the IC50 is 28.2 µM. Turning to `COc1cc(NCCN)c2ncsc2c1`, the EC50 is above 200 µM and the IC50 worked out at 85.1 µM. Regarding `CC12CCc3ccccc3C1=NNC(=O)C2` (configuration not stated), the EC50 is above 170 µM and the IC50 is above 170 µM. `Cc1cc(N(CCC#N)CCC#N)ccc1/C(N=Nc1ccc([N+](=O)[O-])cc1)=N\NC(=O)c1ccccc1`: the EC50 was above 200 µM and the IC50 is 16.2 µM. On to `Cc1ccc(/C=C2\CN(C)CC3=C2NC(=S)NC3c2ccc(C)cc2)cc1` (configuration not stated), for which the EC50 was above 200 µM and the half-maximal inhibitory concentration (IC50) worked out at 25.1 µM.

On to `COC(=O)c1c(C)cc(OC(=O)c2c(C)cc(O)c(C=O)c2O)c(C)c1O`, for which the EC50 is above 151 µM and the IC50 was determined as 20.4 µM. For `CCNC(=S)N/N=C/c1cc([N+](=O)[O-])ccc1O`, the EC50 is above 200 µM and the IC50 was 5.01 µM. `COc1ccc2c(CCNS(=O)(=O)c3ccccc3)c(C(C)=O)[nH]c2c1[N+](=O)[O-]`: the result was inactive. For the molecule `O=[N+]([O-])c1ccc(N2N=C(c3ccc(NCc4nc5ccccc5[nH]4)cc3)CC2c2ccco2)cc1` (configuration not stated), the EC50 is above 15.1 µM and the IC50 is above 15.1 µM. With `CC(C)(C)N=c1n(C(C)(C)C)oc(=O)n1-c1ccccc1`, the EC50 is above 50.1 µM and the IC50 is above 50.1 µM.

On to `CC1=C(C/C=C/c2ccccc2)C(=O)c2ccccc2C1=O`, for which the outcome was inactive. `CN1C(=O)c2cccc3c([N+](=O)[O-])ccc(c23)C1=O`: the EC50 was above 20.4 µM and the IC50 is 7.76 µM. For the molecule `COc1ccc(OC)c(/C=C2/C(=O)N=C(NC(C)=O)N2C)c1`, the EC50 is above 200 µM and the IC50 is above 200 µM.

With `O=C(O)CN=c1c2ccccc2n(O)c2ccccc12`, the outcome was inactive. For the molecule `O=S(=O)(Nc1ccccc1)c1ccc(-c2c3nc(c(-c4ccc(S(=O)(=O)Nc5ccccc5)cc4)c4ccc([nH]4)c(-c4ccc(S(=O)(=O)Nc5ccccc5)cc4)c4nc(c(-c5ccc(S(=O)(=O)Nc6ccccc6)cc5)c5ccc2[nH]5)C=C4)C=C3)cc1`, the EC50 was above 100 µM and the IC50 is above 100 µM. `Cn1c(=O)nc2n(-c3ccc(O)cc3)c3ccccc3nc-2c1=O`: the result was inactive. In the case of `NC(=O)NNCc1c(-c2ccccc2)no[n+]1[O-]`, the EC50 was above 200 µM and the IC50 was above 200 µM. As to `CC(C)OP(=O)(OC(C)C)C(=Nc1ccc(N=C(NNc2ccc([N+](=O)[O-])cc2)P(=O)(OC(C)C)OC(C)C)cc1)NNc1ccc([N+](=O)[O-])cc1`, the EC50 was above 3.55 µM and the IC50 is above 3.55 µM. For the molecule `C/C(=N/NC(=S)Nc1cccc(Cl)c1)c1cccc(/C(C)=N\NC(=S)Nc2cccc(Cl)c2)n1`, the EC50 was above 200 µM and the IC50 turned out to be 5.25 µM. On the same counts, the results for `CCOC(=O)c1c(SC)nc(-c2ccc(Cl)cc2)sc1=N` are above 200 µM and 12 µM. Take `Oc1ccc(/C=C/c2ccc(O)c(O)c2)cc1O`: the EC50 was above 200 µM and the IC50 was found to be 14.5 µM.

In the case of `CC1CCCC2=C1C(c1ccc(Cl)cc1)n1c(s/c(=C\c3ccc(Cl)cc3)c1=O)=N2` (configuration not stated), the outcome was inactive.

Regarding `COc1ccc2c3c([nH]c2c1[N+](=O)[O-])C(C)N(Cc1ccc([N+](=O)[O-])cc1)CC3` (configuration not stated), the outcome was inactive. On to `CCn1c(=O)c2c3ccc(O)cc3[nH]c2c2ccc(O)cc21`, for which the EC50 was above 200 µM and the IC50 came out at 38.9 µM. `CCN(CC)C(=S)SSC(=S)N(CC)CC`: the EC50 is above 200 µM and the IC50 amounted to 44.7 µM. With `CCOC(=O)CCCNC(=O)CCCCC(=O)N(C)C`, the EC50 is above 200 µM and the IC50 is above 200 µM.

Regarding `COc1ccc(N2CCN(c3ccc4c(c3)NCC(=O)N4)CC2)cc1`, the EC50 was above 200 µM and the IC50 was determined as 45.7 µM. On the same counts, the results for `CC(CN1CC(=O)NC(=O)C1)N1CC(=O)NC(=O)C1` (configuration not stated) are above 468 µM and 40.7 µM. `CC1(C)OC2=C(CC1Br)C(=O)C(=O)c1ccccc12` (configuration not stated): the EC50 was above 2 µM and the IC50 amounted to 1.26 µM. Turning to `CC(=O)OC1CC2Oc3ccc(C)cc3C(C)(O2)C1=O` (configuration not stated), the outcome was inactive. In the case of `O=C(c1ccc([N+](=O)[O-])cc1)N1CCCC1`, the EC50 is above 200 µM and the IC50 was above 200 µM. Consider `N#C/C(=C\N1CC(=O)NC1=S)c1nc2ccccc2s1`, for which the result was inactive. Take `Cc1cnc2c(c1C)C(=O)c1ccccc1C2=O`: the result was inactive. For the molecule `O=c1oc2cc(O)ccc2c(O)c1C(c1ccccc1)c1c(O)c2ccc(O)cc2oc1=O`, the EC50 was above 200 µM and the IC50 is 178 µM. On the same counts, the results for `CC(NC(=O)OC(C)(C)C)C(=O)NC(Cc1ccccc1)C(=O)NCC(=O)ON=C1CCCC1` (configuration not stated) are above 200 µM and 25.7 µM. On the same counts, the results for `C#CC(O)Cc1ccc(OC)c2occc12` (configuration not stated) are above 200 µM and 117 µM. On the same counts, the results for `CCCNC(=O)c1sc(SC)nc1NC(=O)c1ccc(OC)cc1` are above 200 µM and above 200 µM. `COc1ccc(S(=O)(=O)O)cc1NS(=O)(=O)c1ccc(C)cc1`: the EC50 was above 200 µM and the IC50 was above 200 µM. As for `CCCCNC1=C(C(=O)OCC)C(=O)CO1`, the EC50 is above 794 µM and the IC50 turned out to be 447 µM. On to `COc1ccccc1-n1nnc2c(N)nc(N)nc21`, for which the EC50 is above 200 µM and the IC50 is above 200 µM. With `Cc1cccc(Cl)c1NC=O`, the result was inactive. In the case of `O=C(Cn1c2ccc(Br)cc2c2nc3ccccc3nc21)NNC(=O)NC1CCCCC1`, the EC50 was above 200 µM and the IC50 worked out at 182 µM. Regarding `CC(=O)Nc1ccc(/C=C/C(=O)c2sc(-n3nc(-c4ccccc4)cc3-c3ccccc3)nc2C)cc1`, the EC50 was above 20 µM and the IC50 was 17 µM.

Take `O=Nc1c(O)[nH]c(=S)[nH]c1=O`: the EC50 is above 148 µM and the IC50 was 115 µM. On the same counts, the results for `C[C@]1(CO)CCC[C@@]2(C)C1CC[C@H]1CC3C[C@]12CC[C@]3(C)O` (some centres not stated) are above 23.4 µM and above 23.4 µM.

Turning to `COC(=O)CN1CCSC1=NC#N`, the result was inactive. Take `COC1=CC(=O)C2[C@H]3Cc4ccccc4[C@H]3C2(C)C1=O` (some centres not stated): the EC50 is above 51.3 µM and the IC50 is above 51.3 µM.
